Source: patent US20130095059A1, “INHALED NO DONOR KMUPS DERIVATIVE PREVENTING ALLERGIC PULMONARY VASCULAR AND BRONCHIAL INFLAMMATION VIA SUPPRESSED CYTOKINES, INOS AND INFLAMMATORY CELL COUNTS IN ASTHMA MODEL” (priority 2007, published 2013)

What was measured:
[1] = test system: BALF cells; test: Ovalbumine model, bronchoalveolar lavage cell counts; type: in vivo, BALB/c mice; details: 24 hrs after the last ovalbumine challenge; nebulization
Procedure: (§1) In this long-term experiment, 6-8 week old BALB/c female mice were sensitized on days 1 and 8 by intra-peritoneal injection (i.p.) of ovalbumine (10 μg) (Sigma-Aldrich, Schnelldorf, Germany) adsorbed to 2 mg aluminum hydroxide (AlumInject; Perbio, Erembodegem, Belgium). Mice were divided into three groups. In Group 1, a control group was only exposed to saline nebulization by aerosol. The other 2 groups were subjected to ovalbumine (1%) nebulization. Before each challenge with ovalbumine, mice were either exposed to saline nebulization (Group 2) or KMUP-1 nebulization (5 mM) for 30 min by aerosol (Group 3).
After the sacrifice of mice, a cannula was placed in the trachea for bronchoalveolar lavage by gentle manual aspiration, using cold PBS-EDTA (0.05 mM, 1 ml) (Calbiochem, Darmstadt, Germany) as previously described (Cataldo D D, et al., 2002). The broncho alveolar lavage fluid (BALF) was centrifuged at 4° C. for 10 min (1200 rpm). The supernatant was frozen at −80° C. for protein assessment and the cell pellet was resuspended in PBS-EDTA (0.05 mM, 1 ml). Total cell counts were performed manually using a thoma chamber. The differential cell counts were performed using morphologic criteria on cytocentrifuged preparations (Cytospin) after staining with Diff-Quick (Dade, Belgium). Differential cell counts were performed by one blinded observer unaware of the experimental treatment.

[2] = test system: eNOS; test: Expression of eNOS in HPAEC; type: cell-based, human
Procedure: HPAEC purchased from ATCC were maintained in humidified incubator containing 5% CO2 at 37° C. HPAEC were cultured in F-12 supplemented with 10% fetal bovine serum. The culture medium was changed every 3 days and cells were subcultured until confluence. HPAEC were harvested with a solution of trypsin-EDTA (GIBCO BRL, NY, USA) while in a logarithmic phase of growth. HPAEC were used between passages 4-8.
To measure the expression of eNOS and 5-HT2B receptor in HPAEC after incubation with KMUP-1 (1-100 μM) for 24 h, whole lysates were collected for Western blotting assay. The relative density was determined using NIH imaging software.

[3] = test system: iNOS; test: Ovalbumine model, iNOS expression; type: in vivo, BALB/c mice; details: 28-day experiment; nebulization
[4] = test system: ERK1/2; test: 5-HT-induced ERK1/2 phosphorylation in PASMCs; type: cell-based, Wistar rats; details: 1-100 μM, 24 h pre-incubation
Procedure: PASMCs were stimulated with 5-HT or not, as indicated. Cells were treated with KMUP-1 for 24 h before 5-HT stimulation. Whole lysates were collected and resolved by SDS-PAGE as previously described. Primary antibodies were anti-β-actin at: 1:10,000 dilution and anti-RhoA, anti-ROCK, antiphospho-ERK1/2, anti-phospho-AKT, anti-ERK1/2, anti-AKT, anti-5HTT, anti-5-HT2B and anti-eNOS at 1:1000. All blots were incubated with antibodies at 4° C. overnight. After being washed, the appropriate secondary antibodies were added at a dilution of 1:1000 for 1 h at room temperature. After extensive washing, blots were developed with a Super Signal enhanced chemiluminescence kit (Biorad, CA, USA) and visualized on Kodak AR film.
The expression of RhoA/ROCK and phosphorylation of ERK1/2 and AKT kinase in PASMCs were assessed by incubating the PASMCs with 5-HT (10 μM) for 15 min (peak time for RhoA/ROCK, ERK1/2 and AKT phosphorylation) and 5-HTT for 10 min (peak time for 5-HTT) after KMUP-1 (1-100 μM) was added to the culture of PASMCs for 24 h.

[5] = test system: PKG; test: Ovalbumine model, PKG expression; type: in vivo, BALB/c mice; details: 28-day experiment; nebulization
Procedure: as §1
The lung tissues were homogenized, washed with PBS and incubated in lysis buffer in addition to a protease inhibitor cocktail (Sigma, St. Louis, Mo.) to obtain extracts of lung proteins. A Western blot analysis was performed as described previously (Wu B N, et al., 2006). The samples were loaded to 10% SDS-PAGE gels and were separated at 120 V for 90 min. The blots were incubated with anti-eNOS antibody diluted at a ratio of 1:500, anti-sGCα1 antibody diluted at a ratio of 1:2000, anti-PKG antibody diluted at a ratio of 1:500, anti-VCAM-1 antibody diluted at a ratio of 1:500, anti-ICAM-1 antibody diluted at a ratio of 1:500, and anti-MMP-9 antibody diluted at a ratio of 1:600 overnight at 4° C. […]

[6] = test system: PASMCs; test: Cell migration (wound) assay of PASMCs; type: cell-based, Wistar rats; details: 10-100 μM; 5-HT 10 μM 24 h
Procedure: Migration of PASMCs was assessed using a wound assay model in which cells grown to confluence on 6 well dishes were scraped with the edge of a fine razor. The wound edge was viewed and photographed under a microscope (Nikon, Tokyo, Japan) before and after culture for 24 h in serum-free DMEM in the presence of 5HT (10 μM). The distance the cells migrated from the wound surface was then manually measured.

In the case of `Cn1c(=O)c2c(ncn2CCN2CCN(c3ccccc3Cl)CC2)n(C)c1=O` [KMUP-1, 7-[2-[4-(2-chlorophenyl)piperazinyl]ethyl]-1,3-dimethylxanthine], the “increase in total cells, lymphocytes and eosinophils in the airway lumen” value [1] was “significantly reduced”, the “expression of eNOS compared to 5-HT treatment alone” value ([2]; 10 μM, 24 h before adding 5-HT) was “raised” and the “eNOS expression in cultured HPAEC” value ([2]; 1-100 μM, 24 h) was “dose-dependently increased”. For the same molecule, the “increased iNOS expression by ovalbumine sensitization” value [3] was “significantly reduced”, the “5-HT-stimulated ERK1/2 phosphorylation” value [4] was “concentration-dependently reduced” and the “decreased PKG expression by ovalbumine sensitization” value [5] was “significantly reduced”. For the same molecule, the “5-HT-induced PASMCs migration” value [6] was “concentration-dependently suppressed”.
